Laboratory results reported in patent US10981932B2, “Macrocyclic indole derivatives” (Bayer Aktiengesellschaft, priority 2016, dated 2021).
“And” between values parts separate entries of the source, which are not always exact repeats. Equal values may be shown once. Where a name gives a salt, the structure may show the parent alone. Read-outs that look alike come from different tables or passages of the source.

Tests used:
MCL-1 = MCL-1 (Homo sapiens, UniProt Q07820); experiment: Protein-protein interaction assay MCL-1/Noxa BH3 peptide (MCL-1 assay), TR-FRET; format: binding; details: MBP-MCL-1 / Noxa BH3-derived peptide, median
Sequence of MCL-1 (Q07820 whole entry): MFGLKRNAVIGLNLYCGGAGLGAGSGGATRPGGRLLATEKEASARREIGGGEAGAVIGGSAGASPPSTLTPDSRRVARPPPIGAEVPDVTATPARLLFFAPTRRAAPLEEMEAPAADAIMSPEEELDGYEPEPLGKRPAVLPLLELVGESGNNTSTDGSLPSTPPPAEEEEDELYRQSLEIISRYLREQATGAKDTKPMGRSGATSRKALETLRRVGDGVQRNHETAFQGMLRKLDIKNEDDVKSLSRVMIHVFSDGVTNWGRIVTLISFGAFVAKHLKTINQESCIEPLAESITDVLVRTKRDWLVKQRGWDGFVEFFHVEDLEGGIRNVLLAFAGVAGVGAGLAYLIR
Outline: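 MBP-MCL-1 (1 nM final) was preincubated 10 min at 22 °C with compounds (11 concentrations, 0.1 nM–20 μM, duplicates) in Tris pH 7 buffer with NaCl, KF, Tween-20, DTT and BGG. After 1 h at 22 °C in the dark plus overnight at 4 °C, anti-MBP Eu-cryptate/streptavidin-XL665 TR-FRET was read; IC50 came from a 4-parameter fit.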

SUDHL5 [1] = experiment: Induction of caspase-3/7 activity (Caspase-Glo 3/7), SUDHL5; format: cell-based; details: caspase-3/7 induction, SUDHL5 cells, 3 h treatment; median
Outline: (§1)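 Caspase-Glo 3/7 luminescence measured after 3 h compound exposure at 37 °C in SUDHL10 and SUDHL5 cells. EC50 values come from background-corrected signals, with curve bottom set to 1 and plateau set to maximal induction by the reference compound.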

SUDHL10 [2] = experiment: Induction of caspase-3/7 activity (Caspase-Glo 3/7), SUDHL10; format: cell-based; details: caspase-3/7 induction, SUDHL10 cells, 3 h treatment, median
Outline: as §1

SUDHL5 [3] = experiment: Anti-proliferative effect (CellTiter-Glo, 72 h), SUDHL5; format: cell-based; details: SUDHL5 cells, antiproliferation, median, read-out: Antiproli SUDHL5 [M] (median)
Outline: (§2)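 Anti-proliferative activity is derived from ATP-based luminescence (CellTiter-Glo) in cells exposed to compound for 72 h at 37 °C, set against a time zero plate read at seeding.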

A2780 = experiment: Anti-proliferative effect (CellTiter-Glo, 72 h), A2780; format: cell-based; details: A2780 cells, median, read-out: IC50 antiproliferation assay A2780 [M] (median)
Outline: as §2

MV-4-11 = experiment: Anti-proliferative effect (CellTiter-Glo, 72 h), MV-4-11; format: cell-based; details: MV-4-11 cells, median, read-out: IC50 antiproliferation assay MV-4-11 [M] (median)
Outline: as §2

SUDHL5 [4] = experiment: Induction of cytotoxicity (CellTiter-Glo, 5 h), SUDHL5; details: read-out: Cytotox SUDHL5 [M] (median), SUDHL5 cells, cytotoxicity induction, CellTiter-Glo, median
SUDHL10 [5] = experiment: Induction of cytotoxicity (CellTiter-Glo, 5 h), SUDHL10
[6] = read-out: Cytotox SUDHL10 [M] (median), SUDHL10 cells, cytotoxicity induction, CellTiter-Glo, 5 h incubation, median
[7] = read-out: Cytotox SUDHL10 [M] (median), SUDHL10 cells, cytotoxicity induction, CellTiter-Glo, 5 h, median

Row | Structure (SMILES) | IC50 (MCL-1) [µM] | EC50 (SUDHL5 [1]) [µM] | EC50 (SUDHL10 [2]) [µM] | IC50 (SUDHL5 [3]; 72 h incubation) [M] | IC50 (A2780) [M] | IC50 (MV-4-11; Homo sapiens, MV4-11, 72 h) [M] | IC50 (MV-4-11) [M] | IC50 (SUDHL5 [3]; 72 h) [M] | EC50 (SUDHL10 [2]; Homo sapiens, SU-DHL10, 3 h) [µM] | IC50 (SUDHL5 [3]; Homo sapiens, SU-DHL-5, 72 h, 72 h incubation) [M] | IC50 (A2780; Homo sapiens, A2780, 72 h) [M] | IC50 (SUDHL5 [4]; 5 h incubation) [M] | IC50 (SUDHL10 [5]; [6]) | IC50 (SUDHL5 [4]; 5 h) [M] | IC50 (SUDHL10 [5]; [7]) [M] | IC50 (SUDHL10 [5]; Homo sapiens, SU-DHL10, 5 h, read-out: Cytotox SUDHL10 [M] (median), SUDHL10 cells, cytotoxicity induction, CellTiter-Glo, 5 h incubation, median)
1 | COCc1nn(C)c2c1-c1cccc3c(CCCOc4cccc5ccccc45)c(C(=O)O)n(c13)CCCCCOC2 (single isomer, unassigned; enantiomer 2) [Example 179, 3-(methoxymethyl)-1-methyl-7-[3-(naphthalen-1-yloxy)propyl]-1,11,12,13,14,16-hexahydro-10H-pyrazolo[3′,4′:3,4][1,7]oxazacyclododecino[5,6,7-hi]indole-8-carboxylic acid-N-ethylethanamine Salt (Enantiomer 2)] | 0.00943 | 11.9 | 26.9 | 1.48e-05 | > 3.3e-05 | 9.83e-06 | – | – | – | – | – | 1.22e-05 | > 3.3e-05 M and 3.15e-05 M | – | – | –
2 | CN1CCCCn2c(C(=O)O)c(CCCOc3cccc4ccccc34)c3cccc(c32)-c2c(CC(F)(F)F)nn(C)c2C1 (single isomer, unassigned) [Example 223, 1,14-dimethyl-7-[3-(naphthalen-1-yloxy)propyl]-3-(2,2,2-trifluoroethyl)-10,11,12,13,14,15-hexahydro-1H-pyrazolo[3′,4′:8,9][1,6]diazacycloundecino[10,11,1-hi]indole-8-carboxylic Acid] | 0.00424 | 6.96 | – | – | > 3.3e-05 | 1.79e-05 | – | – | 26.2 | 9.92e-06 | – | 8.33e-06 | > 3.3e-05 M | – | – | 2.88e-05

More lines, in order of falling IC50 (MCL-1), values ahead:

Row | IC50 (MCL-1) [µM] | EC50 (SUDHL5 [1]) [µM] | EC50 (SUDHL10 [2]) [µM] | IC50 (SUDHL5 [3]; 72 h incubation) [M] | IC50 (A2780) [M] | IC50 (MV-4-11; Homo sapiens, MV4-11, 72 h) [M] | IC50 (MV-4-11) [M] | IC50 (SUDHL5 [3]; 72 h) [M] | EC50 (SUDHL10 [2]; Homo sapiens, SU-DHL10, 3 h) [µM] | IC50 (SUDHL5 [3]; Homo sapiens, SU-DHL-5, 72 h, 72 h incubation) [M] | IC50 (A2780; Homo sapiens, A2780, 72 h) [M] | Structure (SMILES) | IC50 (SUDHL5 [4]; 5 h incubation) [M] | IC50 (SUDHL10 [5]; [6]) | IC50 (SUDHL5 [4]; 5 h) [M] | IC50 (SUDHL10 [5]; [7]) [M] | IC50 (SUDHL10 [5]; Homo sapiens, SU-DHL10, 5 h, read-out: Cytotox SUDHL10 [M] (median), SUDHL10 cells, cytotoxicity induction, CellTiter-Glo, 5 h incubation, median)
3 | 1.28 | > 33 | > 33 | – | 2.17e-05 | – | 3.11e-05 | 8.32e-06 | – | – | – | COc1ccc2c(CCCOc3cccc4ccccc34)c(C(=O)O)n3c2c1-c1c(C)nn(C)c1COCCCC3 (single isomer, unassigned; enantiomer 2) [Example 353, 4-methoxy-1,3-dimethyl-7-[3-(naphthalen-1-yloxy)propyl]-1,10,11,12,13,15-hexahydropyrazolo[4′,3′:9,10][1,6]oxazacycloundecino[8,7,6-hi]indole-8-carboxylic Acid Ammonium Salt (Enantiomer 2)] | – | – | > 3.3e-05 | > 3.3e-05 | –
4 | 0.00589 | 5.37 | 15.9 | 3.74e-06 | 4.18e-06 | – | 4.53e-06 | – | – | – | – | CCc1nn(C)c2c1-c1c(C)ccc3c(C(C)CCOc4cccc5ccccc45)c(C(=O)O)n(c13)CCCCOC2 (single isomer, unassigned) [Example 273, 3-ethyl-1,4-dimethyl-7-[4-(naphthalen-1-yloxy)butan-2-yl]-1,10,11,12,13,15-hexahydropyrazolo[4′,3′:9,10][1,6]oxazacycloundecino[8,7,6-hi]indole-8-carboxylic Acid] | 4.58e-06 | 1.62e-05 M | – | – | –
5 | 0.000676 | 0.309 | 0.947 | – | – | – | 2.08e-06 | 6.43e-07 | – | – | 1.08e-05 | Cc1ccc2c(CCCOc3cccc4cc(F)ccc34)c(C(=O)O)n3c2c1-c1c(nn(CCN2CCOCC2)c1C)COCCCC3 (single isomer, unassigned) [Example 293, (+)-7-{3-[(6-fluoronaphthalen-1-yl)oxy]propyl}-3,4-dimethyl-2-[2-(morpholin-4-yl)ethyl]-2,10,11,12,13,15-hexahydropyrazolo[4′,3′:9,10][1,6]oxazacycloundecino[8,7,6-hi]indole-8-carboxylic acid-N-ethylethanamine Salt] | – | – | 4.23e-07 | 9.88e-07 | –
